According to US7087373B2, “Methods for determining plasma free drug concentration by direct measurement of binding affinity of protease inhibitors to plasma proteins” (priority 2001, dated 2006):
Read-outs that look alike come from different tables or passages of the source.

Assays:
HIV [1] = details: cited from earlier work
[2] = tested on: AAG (human α1-acid glycoprotein); assay: Isothermal titration calorimetry (ITC) of PI binding to AAG; details: for binding to AAG (titration profile): 80 μM PI into 12 μM, 1.45 mL of AAG; for Ka to AAG: ITC, Table 2; for Ka: binding to AAG, 37° C., 20 mM phosphate buffer, pH 7.4, average of duplicate experiments
Method: Briefly, the isothermal titration calorimetry (ITC) measurements are designed to obtain primarily the enthalpy of each complex formation and their stoichiometries. The heats of each reaction are determined by integration of the peaks observed. After the contribution from the heat of dilution of each injection is subtracted, the heat is plotted against the molar ratio of PIs to AAG. The binding constant (Ka), enthalpy of binding (ΔH^0), and stoichiometry (N) of the formation of complex are determined by fitting the binding isotherm against the binding equation using an independent binding model. Data analysis may be carried out with, for example, MicroCal ORIGN software, usually provided with the instrument.
Binding experiments were run using Isothermal Titration Calorimetry (ITC) to measure bound and unbound protease inhibitors.
Sample preparation: Solutions of AAG and its variants for ITC experiments were made up in 20 mM […] buffer, pH 7.4. All compounds were prepared as stock solution of 20 mM or 25 mM in DMSO and thereafter diluted to desired concentration in the same buffer. For all ITC experiments, the percentage of DMSO is below 1%.
ITC Experiments: The isothermal titration measurements of the binding of various PIs to AAG can be typically carried out at 37° C. using a VP-ITC titration calorimeter (MicroCal, Northampton, Mass.). The instrument was electrically calibrated by means of a standard electric pulse as recommended by the manufacturer. […] A 300 μL syringe was used for the titrant, mixing was effected by stirring this syringe at 300 rpm during equilibration and experiment. Typically after a preliminary 2 μL injection, 25 injections of 10 μL each were performed with a 250s interval between injections in a single titration. The reference cell of the calorimeter filled with water, acts as a thermal reference to the sample cell. […] All solutions were degassed before titrations to reduce the noise. The buffer contained 20 mM sodium phosphate, pH 7.4.
The area of each peak was integrated and corrected for the PI heat of dilution, which was estimated by a separate experiment by injecting the PI into the buffer. By fitting the titration curve with a nonlinear least-squares method, the enthalpy change ΔH^0, and the binding constant Ka of PI binding to AAG can be estimated with the assumption of an independent binding site model.
The values provided are the average of duplicate experiments. […] The ΔS^0 function was calculated from the standard thermodynamic relation ΔG^0=ΔH^0−TΔS^0.

HIV [3] = assay: Antiviral assay in the absence of AAG (Table 2); type: cell-based; details: Human immunodeficiency virus 1
Text: In table below, a data table with the binding affinity of 3 PI's to AAG (Ka), their free drug concentrations, calculated IC50s, and calculated efficacy were extracted from the ITC results and compared to IC50s from an antiviral assay in the absence of AAG.

AAG = assay: Calculation of IC50 in presence of AAG, free drug concentration and efficacy from ITC Ka; set-up: species or system human; details: for Free drug Concentration: calculated from ITC results; for IC50: read-out: Predicted IC50 @ 1 mg/mL AAG, calculated from Ka and IC50 without AAG
Text: The quantification of the concentration of protease inhibitor in free form maybe performed by direct measurement of binding affinity Kd using isothermal titration calorimetry; and calculating the concentration of protease inhibitor in free form using the formula:
[formula] where Pt and Lt, are total protein and drug concentrations, and Kd is the equilibrium dissociation constant obtained in step (iii).
[formula] where PL is the protein-bound concentration of PIs, L0 and P0 are the total concentration of PIs and plasma protein, Kα and n are the binding constants and number of binding sites, respectively.
The quantification of the antiviral activity or EC50 value of a protease inhibitor in the presence of at least one plasma protein may be performed by direct measurement of binding affinity Ka using isothermal titration calorimetry; and calculating the antiviral activity or EC50 value of the protease inhibitor using the formula: […]
The quantification of the in vivo efficacy of a protease inhibitor in human plasma may be performed by direct measurement of binding affinity Ka using isothermal titration calorimetry; calculating the concentration of protease inhibitor in free form using the formulas described above; and calculating the in vivo efficacy of the protease inhibitor in human plasma using the formula: […]

HIV [4] = assay: Cell-based anti-HIV assay (tetrazolium-based, Pauwels et al.) in the absence of AAG and in the presence of 1 mg/mL AAG; details: change in experimental EC50, absence of AAG vs presence of 1 mg/mL AAG
Method: The values provided are the average of duplicate experiments. […] The standard free energies (ΔG^0) were obtained from the equation ΔG^0=−RT1nKa, in which the Ka is the binding constant at 37° C. The ΔS^0 function was calculated from the standard thermodynamic relation ΔG^0=ΔH^0−TΔS^0. […] Methods, 1988, 20(4), 309–21.

HIV [5] = details: in vivo, Fischl et al.; extensive protein binding; cited from earlier work
[6] = antiviral assay in the absence of AAG, read-out: IC50

CC(C)[C@H](NC(=O)N(C)Cc1ccccn1)C(=O)N[C@@H](Cc1ccccc1)[C@H](O)[C@H](O)[C@H](Cc1ccccc1)NC(=O)[C@@H](NC(=O)N(C)Cc1ccccn1)C(C)C [A77003]
antiviral efficacy as the concentration of AAG was increased (HIV [1]; in vitro, Bilello et al.): decreased

CC(C)CN(C[C@@H](O)[C@H](Cc1ccccc1)NC(=O)O[C@H]1CCOC1)S(=O)(=O)c1ccc(N)cc1 [APV, amprenavir]
binding to AAG (titration profile) [2]: binds to AAG accompanied with an exothermic heat effect

CC(C)CN(C[C@@H](O)[C@H](Cc1ccccc1)NC(=O)OC1CO[C@H]2OCC[C@@H]12)S(=O)(=O)c1ccc(N)cc1 (some centres unmarked) [Compound number 1]
IC50 (HIV [3]): 3 nM
Ka to AAG [2]: 1.92E+06
Free drug Concentration (AAG): 1300 nM
IC50 (AAG): 74.6 nM

CC(C)CN(C[C@@H](O)[C@H](Cc1ccccc1)NC(=O)O[C@H]1CO[C@H]2OCC[C@H]21)S(=O)(=O)c1ccc2c(c1)OCO2 [Compound number 2]
IC50 (HIV [3]; [6]): 0.8 nM
Ka to AAG [2]: 2.19E+06
Free drug Concentration (AAG): 1190 nM
IC50 (AAG): 22.7 nM

COc1ccc(S(=O)(=O)N(CC(C)C)C[C@@H](O)[C@H](Cc2ccccc2)NC(=O)OC2CO[C@H]3OCC[C@@H]23)cc1 (some centres unmarked) [Compound number 3]
IC50 (HIV [3]; [6]): 0.5 nM
Ka to AAG [2]: 1.24E+06
Free drug Concentration (AAG): 1710 nM
IC50 (AAG): 8.25 nM

CC(C)(C)NC(=O)[C@@H]1CN(Cc2cccnc2)CCN1C[C@@H](O)C[C@@H](Cc1ccccc1)C(=O)N[C@H]1c2ccccc2C[C@H]1O [IDV, indinavir]
binding to AAG (titration profile) [2]: does not bind to AAG
Ka [2]: No binding
Fold Inc. EC50 (HIV [4]): 1.0

Cc1cccc(C)c1OCC(=O)N[C@@H](Cc1ccccc1)[C@@H](O)C[C@H](Cc1ccccc1)NC(=O)[C@H](C(C)C)N1CCCNC1=O [LPV, lopinavir]
Ka [2]: 5.77 ± 0.72 10^6M^−1
Fold Inc. EC50 (HIV [4]): 37.1

Cc1c(O)cccc1C(=O)N[C@@H](CSc1ccccc1)[C@H](O)CN1C[C@H]2CCCC[C@H]2C[C@H]1C(=O)NC(C)(C)C [NFV, nelfinavir]
Ka [2]: 2.35 ± 0.42 10^6M^−1
Fold Inc. EC50 (HIV [4]): 22.9

CC(C)c1nc(CN(C)C(=O)N[C@H](C(=O)N[C@@H](Cc2ccccc2)C[C@H](O)[C@H](Cc2ccccc2)NC(=O)OCc2cncs2)C(C)C)cs1 [RTV, ritonavir]
Ka [2]: 1.55 ± 0.49 10^6M^−1
Fold Inc. EC50 (HIV [4]): 18.9

CC(C)CN(C[C@@H](O)[C@H](Cc1ccccc1)NC(=O)[C@H](CC(N)=O)NC(=O)c1ccc2ccccc2n1)C(=O)NC(C)(C)C [SC-52151, telinavir]
Ka [2]: 2.38 ± 0.60 10^6M^−1
antiretroviral activity in vitro (HIV [1]; Fischl et al.): potent
clinical efficacy (HIV [5]): lack of clinical efficacy
Fold Inc. EC50 (HIV [4]): 29.2

CC(C)(C)NC(=O)[C@@H]1C[C@@H]2CCCC[C@@H]2CN1C[C@@H](O)[C@H](Cc1ccccc1)NC(=O)[C@H](CC(N)=O)NC(=O)c1ccc2ccccc2n1 [SQV, saquinavir]
Ka [2]: 0.34 ± 0.12 10^6M^−1
Fold Inc. EC50 (HIV [4]): 5.6
